# Measurements reported in ChEMBL document CHEMBL1128647, “Novel open-ring analogues of N5,N10-methylenetetrahydrofolic acid with selective activity against brain tumor” (1995).
# Key:
# Format in all cases: functional
# SNB-75 = experiment: Cytotoxic activity against human CNS SNB-75 cancer cell line
# Ovarian cancer cell line = experiment: Cytotoxic activity against human ovarian cancer cell line
# Colon cancer cell line = experiment: Cytotoxic activity against human colon cancer cell line
# Breast cancer cell line = experiment: Cytotoxic activity against human breast cancer cell line
# Renal cancer cell line = experiment: Cytotoxic activity against human renal cancer cell line
# Prostatic carcinoma cell = experiment: Cytotoxic activity against human prostate cancer cell line
# Lung cancer cell line = experiment: Cytotoxic activity against human lung cancer cell line
# U-251 = experiment: Cytotoxic activity against human CNS U251 cancer cell line
Structure (SMILES),GI50 (SNB-75) [µM],GI50 (Ovarian cancer cell line) [µM],GI50 (Colon cancer cell line) [µM],GI50 (Breast cancer cell line) [µM],GI50 (Renal cancer cell line) [µM],GI50 (Prostatic carcinoma cell) [µM],GI50 (Lung cancer cell line) [µM],GI50 (U-251) [µM]
Cc1nc(N)nc(O)c1N1CCN(c2ccc(S(N)(=O)=O)cc2)CC1,0.1,> 100,> 100,> 100,> 100,> 100,> 0.0001,
Cc1nc(N)nc(O)c1N1CCN(c2ccc(C(=O)O)cc2)CC1,> 100,> 100,> 100,> 100,1.39,> 100,> 100,
Cc1nc(N)nc(O)c1N1CCN(c2ccc(C#N)cc2)CC1,0.04,93,> 0.0001,> 0.0001,> 100,> 0.0001,> 100,
Cc1nc(N)nc(O)c1N1CCN(c2ccc(S(=O)(=O)N(Cc3ccccc3)Cc3ccccc3)cc2)CC1,,0.7,55,2.1,3.1,1.9,4.8,3.68
Cc1nc(N)nc(O)c1N1CCN(c2ccc([N+](=O)[O-])cc2)CC1,< 0.01,> 100,> 100,> 100,> 100,> 100,> 100,
CCOC(=O)CCC(NC(=O)c1ccc(N2CCN(c3c(C)nc(N)nc3O)CC2)cc1)C(=O)OCC (centres undefined),< 0.01,> 0.0001,> 100,> 100,> 100,> 100,> 100,
Cc1nc(N)nc(O)c1N1CCN(c2ccc(C(=O)NC(CCC(=O)O)C(=O)O)cc2)CC1 (centres undefined),< 0.01,> 100,> 100,> 100,> 0.0001,> 100,> 100,
